The source of these data is patent publication US7655217B2, “Near infrared imaging agent” (Institut fur Diagnosikforschung GmbH, priority 1997, dated 2010).

One data set concerns tumour LS 174 T. Kind of data set: laser-induced fluorescence imaging of tumour-bearing mouse. The data set is classed as in vivo, mouse (Swiss Nude). The source says: 2-[7-[1,3-dihydro-3,3-dimethyl-5-(methoxycarbonyl)-1-(4-sulfobutyl)-2H-indol-2-yliden]-1,3,5-heptatrienyl]-3,3 -dimethyl-5-(methoxycarbonyl)-1-(4-sulfobutyl)-3H-indolium, sodium salt at a dose of 3.8 μmol/kg body weight was applied intravenously to an anaesthetized, tumour-bearing mouse (Swiss Nude; tumour LS 174 T at the right hindleg).
The laser-induced fluorescent images were taken prior to, and at various points in time after, applying the substance with a fluorescence imager (at Physikalisch-Technische Bundesanstalt, Berlin Charlottenburg). Radiation was excited using monochromatic laser light at 740 nm by decoupling the radiation via a fibre optical waveguide system. Exciting radiation below 740 nm was removed using a cutoff filter. The laser-induced fluorescence light above 740 nm was recorded using a CCD camera (Charge Coupled Device), and data was stored in the form of black-and-white images.

For data set [1] the following is noted: in vivo; cited from earlier work.
The next data set addresses albumin (Homo sapiens, UniProt P02768). Particulars: cited from earlier work.
The conditions of data set [2]: cited from earlier work.

Sequence of albumin (P02768 25-609, species assumed): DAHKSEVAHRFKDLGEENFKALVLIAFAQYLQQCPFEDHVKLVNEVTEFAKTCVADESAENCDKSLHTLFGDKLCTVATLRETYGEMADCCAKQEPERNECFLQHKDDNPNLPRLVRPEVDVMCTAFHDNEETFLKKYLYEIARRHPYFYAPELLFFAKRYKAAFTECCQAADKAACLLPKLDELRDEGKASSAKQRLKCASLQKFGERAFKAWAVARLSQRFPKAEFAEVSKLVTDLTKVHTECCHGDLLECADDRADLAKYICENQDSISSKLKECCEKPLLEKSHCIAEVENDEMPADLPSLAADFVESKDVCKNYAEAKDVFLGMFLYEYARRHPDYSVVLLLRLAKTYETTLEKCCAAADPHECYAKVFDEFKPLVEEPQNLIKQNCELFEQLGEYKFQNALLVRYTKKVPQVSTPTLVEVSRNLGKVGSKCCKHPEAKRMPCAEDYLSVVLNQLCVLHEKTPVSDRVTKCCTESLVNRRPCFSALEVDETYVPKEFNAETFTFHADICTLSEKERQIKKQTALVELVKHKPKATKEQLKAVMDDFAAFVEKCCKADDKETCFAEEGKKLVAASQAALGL

Turning to `COC(=O)c1ccc2c(c1)C(C)(C)C(=CC=CC=CC=CC1=[N+](CCCCS(=O)(=O)O)c3ccc(C(=O)OC)cc3C1(C)C)N2CCCCS(=O)(=O)O.[Na+]` [Example 8, 2-[7-[1,3-dihydro-3,3-dimethyl-5-(methoxycarbonyl)-1-(4-sulfobutyl)-2H-indol-2-yliden]-1,3,5-heptatrienyl]-3,3-dimethyl-5-(methoxycarbonyl)-1-(4-sulfobutyl)-3H-indolium, sodium salt], the fluorescent intensity distribution entry in the data set on tumour LS 174 T (30 seconds after i.v. 3.8 μmol/kg body weight, excitation 740 nm) is “values being increased in the hepatic and pulmonary regions and in the tumour”. For the same compound, in the data set with tumour LS 174 T (18 hours after i.v. 3.8 μmol/kg body weight), the “fluorescent intensity in the tumour as compared with the rest of the body” value is recorded as “clearly increased fluorescent intensity”. Besides, the “distribution of the substance in the animal” value with tumour LS 174 T (up to 1 h after i.v. 3.8 μmol/kg body weight) is “spreads more and more throughout the animal”.

Take `CC1(C)C(/C=C/C=C/C=C/C=C2\N(CCCCS(=O)(=O)O)c3ccc4ccccc4c3C2(C)C)=[N+](CCCCS(=O)(=O)[O-])c2ccc3ccccc3c21` [Indocyanine green]: the 50% lethal dose (LD50) (usually the dose at which mortality reaches 50%) in data set [1] is 0.84 mmol/kg. Besides, the binding to albumin entry on albumin is “up to 100%”. The stability when dissolved result in data set [2] (dissolved) is “unstable when dissolved”. Further, in data set [2] (saline media), the “applicability in saline media” value is on record as “precipitation will occur”.
